pEC50: −log10 of the molar value.
Test: Antagonist activity at recombinant human GPR55 expressed in HEK293 cells assessed as inhibition of LPI mediated receptor activation by measuring LPI EC50 after 5 mins by xCELLigence assay (Rvb = 1.6 to 4.1 nM)

Structure (SMILES)	pEC50
COc1ccc2c(c1)OC(C)(C)c1cn(CCN3CCN(C(=O)C4CCCO4)CC3)nc1-2 (centres undefined)	7.60
COc1ccc2c(c1)OC(C)(C)c1cn(CCN3CCN(C(=O)c4ccccc4)CC3)nc1-2	7.80
COc1ccc(N2CCN(CC(=O)NCn3ncc4c3-c3ccc(OC)cc3OC4(C)C)CC2)cc1	7.57
COc1ccc2c(c1)OC(C)(C)c1cn(CNC(=O)CN3CCN(c4cccc(C)c4C)CC3)nc1-2	7.52
COc1ccc2c(c1)OC(C)(C)c1cn(CNC(=O)CN3CCN(c4ccccc4OC)CC3)nc1-2	7.55
COc1ccc2c(c1)OC(C)(C)c1cn(CNC(=O)CN3CCN(c4ccccc4)CC3)nc1-2	7.49
COc1ccc2c(c1)OC(C)(C)c1cnn(CNC(=O)CN3CCN(c4ccccc4)CC3)c1-2	7.55
COc1ccc2c(c1)OC(C)(C)c1cnn(CCN3CCN(C(=O)c4cccs4)CC3)c1-2	7.54
COc1ccc2c(c1)OC(C)(C)c1cnn(CCN3CCN(C(=O)c4ccco4)CC3)c1-2	7.70
